Tests used:
Format in all cases: cell-based
[1] = molecular target: T1, long form of human GPR120 (Homo sapiens, UniProt Q5NUL3); assay: Human GPR120 DiscoveRx PathHunter Beta-Arrestin Assay, Procedure β-arrestin A (3000 cells per well); conditions: read-out: GPR120 B-arrestin A EC50
T1 construct: host or cells: PathHunter CHO-K1 GPR120 β-Arrestin Cell Line
T1 sequence (Q5NUL3 1-377 isoform Q5NUL3-1): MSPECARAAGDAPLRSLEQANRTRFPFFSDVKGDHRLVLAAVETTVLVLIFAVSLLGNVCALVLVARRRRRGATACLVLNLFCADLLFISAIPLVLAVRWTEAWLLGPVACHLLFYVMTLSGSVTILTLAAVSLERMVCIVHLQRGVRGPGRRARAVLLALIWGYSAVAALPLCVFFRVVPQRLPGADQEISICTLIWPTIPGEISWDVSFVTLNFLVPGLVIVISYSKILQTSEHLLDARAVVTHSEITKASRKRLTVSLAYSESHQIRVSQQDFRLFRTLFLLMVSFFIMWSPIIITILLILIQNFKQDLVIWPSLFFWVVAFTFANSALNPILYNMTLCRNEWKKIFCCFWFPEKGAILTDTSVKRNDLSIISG
Text: (§1) The binding of an agonist (medium/long chain fatty acids or small molecule agonists) to the G-protein-coupled receptor GPR120 activates phospholipase C, leading to release of intracellular Ca^+2 through the generation of inositol 1,4,5-trisphosphate (InsP3 or IP3). GPR120 activation can also trigger intracellular signaling via recruitment of β-Arrestin. In the present method, agonist-induced activation of the human GPR120 receptor is monitored through the use of PathHunter CHO-K1 GPR120 β-Arrestin Cell Line engineered by DiscoveRx, as detailed below. The cell lines are designed to co-express both the ProLink/Enzyme Donor (PK)-tagged GPCR and the Enzyme Activator (EA)-tagged β-Arrestin fusion proteins. Upon GPR120 receptor stimulation/activation, the EA-tagged β-Arrestin portion is translocated to the tagged receptor, where the two enzyme fragments are brought within close proximity. Under these conditions, these fragments can interact and form an active Beta-gal enzyme complex through Enzyme Fragment Complementation (EFC). This active Beta-gal complex can enzymatically hydrolyse the substrate to produce a detectable light signal; therefore, activation as a function of agonist concentration can be expressed as an EC50 value to determine relative compound activities. This in vitro assay therefore serves to assess compound agonist activity of the GPR120.
In Procedure β-arrestin A, the cell used were PathHunter CHO-K1 GPR120 β-Arrestin Cell Line, expressing the long form of human GPR120 (Genbank accession number NM_181745), with 3000 cells per well.
(§2) The selected CHO-K1 GPR120 β-Arrestin cells were cultured in Ham's F12 media supplemented with 10% fetal bovine serum (FBS), 1% Glutamine, 1×p/s, 800 μg/ml G418 and 300 μg/ml Hygromycin B (for selection). Cell stocks were maintained and grown in a sub-confluent state using standard cell culture procedures. The day before the experiment, the cells were harvested with non-enzymatic cell dissociation buffer and re-suspended in complete growth media at the desired concentration. A Corning 384-plate was then seeded with the proper number of cells in a volume of 25 μL, per well. The seeded plates were incubated overnight at 37° C.
(§3) On the day of the experiment, the Assay Buffer containing (a) HBSS with Ca^++ and Mg^++, (b) 20 mM HEPES, and (c) 0.1% BSA stabilizer (pH 7.4) was prepared. The growth medium was gently removed from the cell plates and 20 μL of Assay Buffer added to each well. The plate was then incubated at 37° C. for 60 mins. Test compounds were serially diluted in Assay Buffer to desired concentrations (more particularly, to one or more of the following μM concentrations: 25 μM, 12.5 μM, 6.25 μM, 3.125 μM, 1.562 μM, 0.781 μM, 0.391 μM, 0.195 μM, 0.098 μM, 0.049 μM, 0.024 μM, 0.012 μM). Five μl of compound dilution was then added to each well and the plate incubated at 37° C. for 90 mins. The detection reagents were prepared according to the manufacture's instruction. Twelve μL of the detection reagents were added to each well and the plate incubated at room temperature for 60 mins.
(§4) The plates were read on an EnVision instrument, using Protocol name: Luminescence, Plate type: 384 Costar, Measurement height: 3 mm, Measurement time: 1 s, Aperture: 384 Plate aperture. The % activity relative to the positive control was calculated using the following equation:
(§5) The % Activity values were plotted versus the concentration of test compound and fitted to a sigmoidal dose-response curve with a Hill slope=1 (fixed value) using nonlinear regression with GraphPad Prism 5.0 to calculate the EC50 values. The Fitting Equation was: Y=Bottom+(Top−Bottom)/(1+10^((LogEC50−X)*HillSlope)), where X is the log of the concentration and Y is the response.

[2] = molecular target: T2, short form of the GPR120 receptor (Homo sapiens, UniProt Q5NUL3); assay: Human GPR120 DiscoveRx PathHunter Beta-Arrestin Assay, Procedure β-arrestin B (5000 cells/well)
T2 construct: host or cells: PathHunter CHO-K1 GPR120S β-Arrestin Cell Line
T2 sequence (Q5NUL3 1-361): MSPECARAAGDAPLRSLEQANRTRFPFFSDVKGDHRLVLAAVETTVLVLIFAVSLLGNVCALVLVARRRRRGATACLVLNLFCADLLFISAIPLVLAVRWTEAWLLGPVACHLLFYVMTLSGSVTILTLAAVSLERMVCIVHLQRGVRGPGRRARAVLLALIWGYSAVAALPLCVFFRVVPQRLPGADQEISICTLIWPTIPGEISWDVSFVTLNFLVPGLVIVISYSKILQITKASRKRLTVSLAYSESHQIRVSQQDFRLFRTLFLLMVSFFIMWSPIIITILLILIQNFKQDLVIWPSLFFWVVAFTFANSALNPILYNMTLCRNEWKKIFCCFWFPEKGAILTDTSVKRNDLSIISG
Text: as §1
In Procedure β-arrestin B the cells used were PathHunter CHO-K1 GPR120S β-Arrestin Cell Line, expressing the short form of the GPR120 receptor (Accession #NM_181745), with 5000 cells/well.
as §2, §3, §4, §5

Human GPR120 short form = molecular target: T3, Human GPR120 short form (Homo sapiens, UniProt Q5NUL3); assay: Human GPR120 in Calcium Flux Assay, Procedure Calcium A (2500 cells/well)
T3 construct: expressed in transfected cells
T3 sequence (Q5NUL3 1-361): T2 sequence (Q5NUL3 1-361)
Text: This in vitro assay serves to assess test compound agonist activity against the short splice variant (SVS with Accession number NM_001195755.1 confirmed by sequencing data) of the GPR120 receptor. The Human Short splice variant #2 (NM_001195755.1) is missing an in-frame coding exon compared to variant 1 (the Human Long splice variant NM_181745.3), resulting in a shorter isoform (GPR120-S) lacking a 16 aa protein segment compared to isoform GPR120-L. The assay platform utilizes HEK-293 cells stably transfected to express the Human GPR120 short form. These cells are first loaded with the Ca^+2 sensitive dye, Fluo-4 NW. Upon stimulation, intracellular released Ca^+2 can bind to the dye and alter its fluorescence intensity. This increase in fluorescence signal, and thus the flux in intracellular [Ca^+2], is detected and quantitated by fluorescence imaging using a FLIPR reader. The effect of the agonist is measured as a function of concentration and used to calculate an EC50 based upon a response curve.
In this procedure 2500 cells/well were employed.
A Human GPR120 clone (Genbank accession number NM_001195755.1) was placed into the pcDNA3.1 mammalian expression vector carrying the neomycin resistance gene. A stable mammalian cell was generated by placing the above clone into a HEK293 background. Clonal cells responding to long chain fatty acids had expression levels of GPR120 confirmed by RT-qPCR. Human HEK-GPR120 cells were cultured in Dulbecco's Modified Eagle's Medium (DMEM)/F12 medium supplemented with 10% fetal bovine serum (FBS), 1% L-Glutamine and 1% penicillin/streptomycin and 0.5 mg/ml G-418. Cells were split 2 times a week to keep the cells in the log-phase growth.
In preparation for the assay, HEK cells stably transfected with Human GPR120 (2.5K cells per well in 25 uL growth medium) were seeded into 384-well plates and then incubated overnight (37° C., 5% CO2). The next day, the media was changed to 20 μl assay buffer and the cell starved for 1 h at 37° C. The dye loading solution (2× dye) was prepared using 10 ml assay buffer, 100 μl of 250 mM probenecid, 1 bottle of Component A, and 20 μl of dye in DMSO. Twenty μl of the 2× dye loading buffer was then added to each well. The plates were incubated at 37° C. for 30 min, then at room temperature for an additional 15 minutes, before performing the assay on FLIPR.
Test compounds were prepared in assay buffer (2 μl of test compound+198 μl assay buffer, final DMSO in assay plate is 0.2%) at the desired concentration, more particularly at 100 μM, 50 μM, 25 μM, 12.5 μM, 6.25 μM, 3.125 μM, 1.562 μM, 0.781 μM, 0.391 μM, 0.195 μM, 0.098 μM, 0.049 μM, 0.024 μM and 0.012 μM.
The assay was performed on a FLIPR plate reader using the following parameters. Baseline was read for 10 seconds at 1 sec intervals. The program was set to transfer 10 μL of ligand from compound plate to cell plate after baseline reading. Aspiration was executed at: 10 μl/sec speed, 4.6 μl height; Dispensing was executed at: 30 μl/sec speed, 45 μl height. After compound addition, each well was read for 300 sec, with measurements collected at 1 sec intervals.
The kinetic data from the FLIPR was based upon a 5 minute window for data collection. The fluorescence of each sample well was used for individual calculations of a normalized RFU value, which was defined as maximum response minus the minimum response. The normalized fluorescence reading (RFU) was calculated as follows: RFU=Fmax−Fmin
The data were fitted to a sigmoidal dose-response curve with a variable Hill slope (<2) using nonlinear regression with GraphPad Prism 5.0 to calculate the EC50 values. The Fitting Equation was: Y=Bottom+(Top−Bottom)/(1+10^((LogEC50−X)*HillSlope)), where X is the log of the concentration and Y is the response.

Structure (SMILES) | EC50 [1] | EC50 [2] | EC50 (Human GPR120 short form)
Cc1oc2cccc(COc3ccc(CCC(=O)O)c(F)c3F)c2c1C [Compound 1, 3-{4-[(2,3-Dimethyl-1-benzofuran-4-yl)methoxy]-2,3-difluorophenyl}propanoic acid] | > 20000 nM | – | –
CCCc1cc2cc(C(C)(F)F)cc(COc3ccc(CCC(=O)O)c(C)c3C)c2o1 [Compound 79, 3-(4-{[5-(1,1-Difluoroethyl)-2-propyl-1-benzofuran-7-yl]methoxy}-2,3-dimethylphenyl)propanoic acid] | 2220 nM | – | –
Cc1cc2cc(OC(F)(F)F)cc(COc3ccc(CCC(=O)O)c(C(F)(F)F)c3)c2o1 [Compound 112, 3-[4-{[2-Methyl-5-(trifluoromethoxy)-1-benzofuran-7-yl]methoxy}-2-(trifluoromethyl)phenyl]propanoic acid] | – | 110 nM | 121 nM
Cc1nc2c(COc3ccc(CCC(=O)O)c(C)c3C)cc(OC(F)(F)F)cc2s1 [Compound 118, 3-(2,3-Dimethyl-4-{[2-methyl-6-(trifluoromethoxy)-1,3-benzothiazol-4-yl]methoxy}phenyl)propanoic acid] | – | 237 nM | 65 nM
Cc1c(CCC(=O)O)ccc(OCc2cc(Cl)cc3sc(C(F)(F)F)nc23)c1C [Compound 119, 3-(4-{[6-Chloro-2-(trifluoromethyl)-1,3-benzothiazol-4-yl]methoxy}-2,3-dimethylphenyl)propanoic acid] | – | 1440 nM | –
Cc1cc2c(COc3ccc(CCC(=O)O)c(F)c3F)cccc2o1 [Compound 6, 3-{2,3-Difluoro-4-[(2-methyl-1-benzofuran-4-yl)methoxy]phenyl}propanoic acid] | > 20000 nM | – | –
Cc1c(CCC(=O)O)ccc(OCc2cc(F)cc3sc(CC(C)C)nc23)c1C [Compound 115, 3-(4-{[6-Fluoro-2-(2-methylpropyl)-1,3-benzothiazol-4-yl]methoxy}-2,3-dimethylphenyl)propanoic acid] | – | 772 nM | 468 nM
Cc1nc2cc(Cl)cc(COc3ccc(CCC(=O)O)c(C)c3C)c2s1 [Compound 121, 3-{4-[(5-Chloro-2-methyl-1,3-benzothiazol-7-yl)methoxy]-2,3-dimethylphenyl}propanoic acid] | – | 1190 nM | 382 nM
Cc1c(CCC(=O)O)ccc(OCc2cc(F)cc3sc(C(F)(F)F)nc23)c1C [Compound 117, 3-(4-{[6-Fluoro-2-(trifluoromethyl)-1,3-benzothiazol-4-yl]methoxy}-2,3-dimethylphenyl)propanoic acid] | – | 681 nM | 422 nM

Source: patent US9562053B2, “Benzo-fused heterocyclic derivatives useful as agonists of GPR120” (Janssen Pharmaceutica NV, priority 2013, dated 2017)
